Experiment [1] deals with MCF-7 cells expressing LC3-GFP. Nature of the experiment: Number of GFP-LC3 puncta (autophagy induction). Particulars: MCF-7 expressing LC3-GFP, treated 6 hours in serum-free medium. The class given is cell-based. As to the method:
Using lipofectamine 2000, LC3-GFP plasmid was transfected into MCF-7 cells. Transfected MCF-7 was selected with 800 µg/mL of G418 for 3 months. […] 100,000 MCF-7 cells expressing LC3-GFP were seeded.
40 µg of dye-labeled particles and 4 µg of bec1 peptide were mixed, and the cells were treated for 6 hours in a serum-free medium. Cells were fixed with 4% PFA, and nuclei were stained with DAPI. Images were obtained with a Delta-vision microscope, and the number of GFP-LC3 puncta was measured in 100 cells for each group.
LC3 protein is a biomarker involved in the elongation process of autophagosome, and its expression level is known to increase with the progress of autophagosome.

Experiment [2] relates to MCF-7 cells. The experiment is described as follows: Cytotoxicity, MTT assay. The class given is cell-based. To be noted: treatment for 1 day, compared to the non-treated group. As to the method: MCF-7 cells were seeded at 10,000 cells/well in 96-well cell culture plates. After 1 day, different concentrations of each particle (4 to 500 µg/mL) were treated with a serum-containing medium in each well for 1 day. Thereafter, the culture was performed for 4 hours while replacing the above medium with a serum-free medium containing 10 µl of MTT assay kit, and the supernatant was aspirated. DMSO was added to each well to dissolve formazan, and reacted for 1 hour. The absorbance was measured at a wavelength of 570 nm, and the cell viability was calculated as a relative value to that of the untreated group.
Cell viability was compared by MTT assay after treatment with FabBALL and Becl peptide carrying Becl peptide on MCF-7 cells.

With CGGTNVFNATFHIWHSGQFGT [Becl peptide], the GFP puncta entry in experiment [1] is given as “very little amount”. Besides, in experiment [2], the cell viability entry is “not significantly varied”.

The values above are taken from patent EP4005558A1, “ANTICANCER AGENT AND METHOD FOR PREPARATION OF POROUS SILICA PARTICLE” (Lemonex Inc., priority 2019, dated 2022).
